# Columns and labels:
# Enterococcus faecium X66 = assay: MIC, standard agar-dilution assay; format: cell-based
# Experimental: (§1) The formula I compounds have in vitro and in vivo activity against Gram-positive pathogenic bacteria. The MIC's were determined using a standard agar-dilution assays.
# ^b Formerly Streptococcus faecium X66
# [1] = test system: Staphylococcus aureus S13E; format: cell-based
# Experimental: as §1
# [2] = test system: Streptococcus pneumoniae Park 1; format: cell-based
# Experimental: as §1
# [3] = test system: Klebsiella pneumoniae KAE; assay: MIC, standard agar-dilution assay; format: cell-based
# Experimental: as §1
# [4] = test system: Klebsiella pneumoniae X68; assay: MIC, standard agar-dilution assay; format: cell-based
# Experimental: as §1
# [5] = test system: Klebsiella pneumoniae X26; assay: MIC, standard agar-dilution assay; format: cell-based
# Experimental: as §1
# [6] = test system: Staphylococcus aureus V41; assay: MIC, standard agar-dilution assay; format: cell-based
# Experimental: as §1
# Escherichia coli EC14 = assay: MIC, standard agar-dilution assay; format: cell-based
# Experimental: as §1
# [7] = test system: Staphylococcus epidermidis 222; assay: MIC, standard agar-dilution assay; format: cell-based
# Experimental: as §1
# Escherichia coli N10 = assay: MIC, standard agar-dilution assay; format: cell-based
# Experimental: as §1
# [8] = test system: Staphylococcus aureus NRRL X1.1; assay: MIC, standard agar-dilution assay; format: cell-based
# Experimental: as §1
# [9] = test system: Staphylococcus epidermidis EPI270; assay: MIC, standard agar-dilution assay; format: cell-based
# Experimental: as §1
# [10] = test system: Streptococcus pyogenes C203; assay: MIC, standard agar-dilution assay; format: cell-based
# Experimental: as §1
# [11] = test system: Staphylococcus aureus X400; assay: MIC, standard agar-dilution assay; format: cell-based
# Experimental: as §1
# Escherichia coli TEM = assay: MIC, standard agar-dilution assay; format: cell-based
# Experimental: as §1
# [12] = test system: Haemophilus influenzae 76; assay: MIC, standard agar-dilution assay; format: cell-based
# Experimental: as §1
# [13] = test system: Haemophilus influenzae C.L.; assay: MIC, standard agar-dilution assay; format: cell-based
# Experimental: as §1
# [14] = test system: Enterococcus faecalis 2041; assay: MIC, standard agar-dilution assay; format: cell-based
# Experimental: as §1
# ^c Formerly Streptococcus faecalis 2041
# Streptococcus pyogenes = assay: In vivo activity, experimentally infected mice (ED50); conditions: Streptococcus pyogenes infection; doses administered subcutaneously to mice 1 and 4 hours postinfection
# Staphylococcus aureus = assay: as above; conditions: Staphylococcus aureus infection; doses administered subcutaneously to mice 1 and 4 hours postinfection
# Streptococcus pneumoniae = assay: as above; conditions: Streptococcus pneumoniae infection; doses administered subcutaneously to mice 1 and 4 hours postinfection
SMILES,MIC (Enterococcus faecium X66),MIC [1],MIC [2],MIC [3] [µg/mL],MIC [4] [µg/mL],MIC [5] [µg/mL],MIC [6],MIC (Escherichia coli EC14) [µg/mL],MIC [7],MIC (Escherichia coli N10) [µg/mL],MIC [8],MIC [9] [µg/mL],MIC [10],MIC [11],MIC [12] [µg/mL],MIC [13] [µg/mL],MIC [14],ED50 (Streptococcus pyogenes) [mg/kg/2],ED50 (Staphylococcus aureus) [mg/kg/2],ED50 (Streptococcus pneumoniae) [mg/kg/2],further results
CCCCCNC1(C)CC(OC2c3ccc(cc3)Oc3cc4cc(c3OC3OC(CO)C(O)C(O)C3O)Oc3ccc(cc3Cl)C(O)C(NC(=O)C(CC(C)C)NC)C(=O)NC(CC(N)=O)C(=O)NC4C(=O)NC3C(=O)NC2C(=O)NC(C(=O)O)c2cc(O)cc(O)c2-c2cc3ccc2O)OC(C)C1O (stereo not drawn) [Compound 71],8 µg/mL,2 µg/mL,2 µg/mL,> 128,> 128,> 128,2 µg/mL,> 128,4 µg/mL,> 128,2 µg/mL,1,2 µg/mL,4 µg/mL,> 128,> 128,8 µg/mL,–,–,–,MIC (Escherichia coli TEM): > 128 µg/mL
CCCCCN(C)[C@H](CC(C)C)C(=O)N[C@H]1C(=O)N[C@@H](CC(N)=O)C(=O)N[C@H]2C(=O)N[C@H]3C(=O)N[C@H](C(=O)N[C@H](C(=O)O)c4cc(O)cc(O)c4-c4cc3ccc4O)[C@H](O[C@H]3C[C@](C)(N)[C@@H](O)[C@H](C)O3)c3ccc(c(Cl)c3)Oc3cc2cc(c3O[C@@H]2O[C@H](CO)[C@@H](O)[C@H](O)[C@H]2O[C@H]2C[C@](C)(N)[C@@H](O)[C@H](C)O2)Oc2ccc(cc2Cl)[C@H]1O [Compound 35],.5 µg/mL,.25 µg/mL,.25 µg/mL,> 128,> 128,> 128,.25 µg/mL,> 128,.5 µg/mL,> 128,.5 µg/mL,1,.25 µg/mL,.5 µg/mL,> 128,> 128,.5 µg/mL,–,–,–,MIC (Escherichia coli TEM): > 128 µg/mL
CNC(CC(C)C)C(=O)NC1C(=O)NC(CC(N)=O)C(=O)NC2C(=O)NC3C(=O)NC(C(=O)NC(C(=O)O)c4cc(O)cc(O)c4-c4cc3ccc4O)C(OC3CC(C)(NCc4ccc(F)cc4)C(O)C(C)O3)c3ccc(c(Cl)c3)Oc3cc2cc(c3OC2OC(CO)C(O)C(O)C2OC2CC(C)(N)C(O)C(C)O2)Oc2ccc(cc2Cl)C1O (stereo not drawn) [Compound 66],1 µg/mL,1 µg/mL,.25 µg/mL,> 128,> 128,> 128,1 µg/mL,> 128,1 µg/mL,> 128,.5 µg/mL,2,.5 µg/mL,1 µg/mL,> 128,> 128,1 µg/mL,0.18,0.37,0.22,–
CN[C@H](CC(C)C)C(=O)N[C@H]1C(=O)N[C@@H](CC(N)=O)C(=O)N[C@H]2C(=O)N[C@H]3C(=O)N[C@H](C(=O)N[C@H](C(=O)O)c4cc(O)cc(O)c4-c4cc3ccc4O)[C@H](O[C@H]3C[C@](C)(NCc4ccccc4)[C@@H](O)[C@H](C)O3)c3ccc(cc3)Oc3cc2cc(c3O[C@@H]2O[C@H](CO)[C@@H](O)[C@H](O)[C@H]2O[C@H]2C[C@](C)(NCc3ccccc3)[C@@H](O)[C@H](C)O2)Oc2ccc(cc2Cl)[C@H]1O [Compound 11],.25 µg/mL,.25 µg/mL,.25 µg/mL,> 128,> 128,> 128,.5 µg/mL,–,.5 µg/mL,–,.25 µg/mL,1,.25 µg/mL,.5 µg/mL,> 128,> 128,1 µg/mL,0.34,0.58,0.37,–
CC(C)C[C@H](C(=O)N[C@H]1C(=O)N[C@@H](CC(N)=O)C(=O)N[C@H]2C(=O)N[C@H]3C(=O)N[C@H](C(=O)N[C@H](C(=O)O)c4cc(O)cc(O)c4-c4cc3ccc4O)[C@H](O[C@H]3C[C@](C)(NCc4ccccc4)[C@@H](O)[C@H](C)O3)c3ccc(cc3)Oc3cc2cc(c3O[C@@H]2O[C@H](CO)[C@@H](O)[C@H](O)[C@H]2O[C@H]2C[C@](C)(NCc3ccccc3)[C@@H](O)[C@H](C)O2)Oc2ccc(cc2Cl)[C@H]1O)N(C)Cc1ccccc1 [Compound 12],4 µg/mL,4 µg/mL,2 µg/mL,> 128,> 128,> 128,8 µg/mL,–,8 µg/mL,–,8 µg/mL,8,2 µg/mL,8 µg/mL,> 128,> 128,8 µg/mL,–,–,–,–
CNC(CC(C)C)C(=O)NC1C(=O)NC(CC(N)=O)C(=O)NC2C(=O)NC3C(=O)NC(C(=O)NC(C(=O)O)c4cc(O)cc(O)c4-c4cc3ccc4O)C(OC3CC(C)(NCc4ccc(F)cc4)C(O)C(C)O3)c3ccc(c(Cl)c3)Oc3cc2cc(c3OC2OC(CO)C(O)C(O)C2OC2CC(C)(NCc3ccc(F)cc3)C(O)C(C)O2)Oc2ccc(cc2Cl)C1O (stereo not drawn) [Compound 68],–,–,–,–,–,–,–,–,–,–,–,–,–,–,–,–,–,0.09,0.80,0.12,–
CNC(CC(C)C)C(=O)NC1C(=O)NC(CC(N)=O)C(=O)NC2C(=O)NC3C(=O)NC(C(=O)NC(C(=O)O)c4cc(O)cc(O)c4-c4cc3ccc4O)C(OC3CC(C)(NCc4ccccc4)C(O)C(C)O3)c3ccc(c(Cl)c3)Oc3cc2cc(c3O)Oc2ccc(cc2Cl)C1O (stereo not drawn) [Compound 79],1 µg/mL,.25 µg/mL,.25 µg/mL,> 128,> 128,> 128,.25 µg/mL,> 128,.5 µg/mL,> 128,.25 µg/mL,–,.25 µg/mL,.5 µg/mL,> 128,> 128,1 µg/mL,0.71,> 1.0,0.71,MIC (Escherichia coli TEM): > 128 µg/mL
CN[C@H](CC(C)C)C(=O)N[C@H]1C(=O)N[C@@H](CC(N)=O)C(=O)N[C@H]2C(=O)N[C@H]3C(=O)N[C@H](C(=O)N[C@H](C(=O)O)c4cc(O)cc(O)c4-c4cc3ccc4O)[C@H](O[C@H]3C[C@](C)(NCCc4ccccc4)[C@@H](O)[C@H](C)O3)c3ccc(cc3)Oc3cc2cc(c3O[C@@H]2O[C@H](CO)[C@@H](O)[C@H](O)[C@H]2O[C@H]2C[C@](C)(N)[C@@H](O)[C@H](C)O2)Oc2ccc(cc2Cl)[C@H]1O [Compound 25],–,–,–,–,–,–,–,–,–,–,–,–,–,–,–,–,–,0.50,> 1.0,0.76,–
CNC(CC(C)C)C(=O)NC1C(=O)NC(CC(N)=O)C(=O)NC2C(=O)NC3C(=O)NC(C(=O)NC(C(=O)O)c4cc(O)cc(O)c4-c4cc3ccc4O)C(OC3CC(C)(N)C(O)C(C)O3)c3ccc(c(Cl)c3)Oc3cc2cc(c3OC2OC(CO)C(O)C(O)C2OC2CC(C)(NCc3ccc(F)cc3)C(O)C(C)O2)Oc2ccc(cc2Cl)C1O (stereo not drawn) [Compound 67],.5 µg/mL,1 µg/mL,.125 µg/mL,> 128,> 128,> 128,1 µg/mL,> 128,.5 µg/mL,> 128,.5 µg/mL,2,.25 µg/mL,1 µg/mL,> 128,> 128,.5 µg/mL,< 0.12,0.33,< 0.12,–
